What follows are compounds tested against T1, glutaminase (GAC) (Homo sapiens, UniProt O94925) (assay: Glutaminase coupled endpoint enzymatic assay (Example A)). Details: inhibition of glutaminase; assay of Example A or Example B.
T1 sequence (O94925 55-598 isoform O94925-3 limits assumed): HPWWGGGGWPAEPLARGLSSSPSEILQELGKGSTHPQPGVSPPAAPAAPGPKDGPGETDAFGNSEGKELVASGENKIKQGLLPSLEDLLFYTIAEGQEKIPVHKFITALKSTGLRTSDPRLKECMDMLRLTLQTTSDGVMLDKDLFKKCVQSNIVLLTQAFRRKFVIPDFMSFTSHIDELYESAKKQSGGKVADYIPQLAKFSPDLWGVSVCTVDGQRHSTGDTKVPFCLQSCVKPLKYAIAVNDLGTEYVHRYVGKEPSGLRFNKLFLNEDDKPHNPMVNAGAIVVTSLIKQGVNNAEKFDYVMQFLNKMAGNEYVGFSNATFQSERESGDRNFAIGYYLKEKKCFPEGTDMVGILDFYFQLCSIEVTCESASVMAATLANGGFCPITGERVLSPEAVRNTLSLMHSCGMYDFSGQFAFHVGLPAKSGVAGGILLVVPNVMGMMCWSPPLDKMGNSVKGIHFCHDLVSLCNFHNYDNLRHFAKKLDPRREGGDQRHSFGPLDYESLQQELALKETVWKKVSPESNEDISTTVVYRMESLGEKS
Assay type: biochemical
Text: In certain embodiments, exemplary compounds of Formula I include the compounds described in Table 1 and in the Examples. A compound described herein may be tested for its ability to inhibit glutaminase, e.g., by an assay as described in the Examples. For simplicity, the inhibition activity of these compounds is represented as an IC50 tested in an assay of Example A or Example B in Table 1. […] “N/A” refers to compounds wherein the IC50 is unavailable.
In this example, the enzymatic activity of glutaminase is measured through a coupled endpoint assay. Glutamine and phosphate are supplied to GAC at a concentration equal to Km and AC50, respectively, and GAC concentration is adjusted to give a linear reaction for 60 minutes. The glutamate produced is converted to 2-OG by a kinetic excess of glutamate dehydrogenase. This second step is configured for 2×Km for NAD, since excess NAD is inhibitory. However, a kinetic excess of the third coupling enzyme, diaphorase, recycles NAD from NADH to keep the NAD concentration constant during the timecourse of the assay. Diaphorase, also supplied in kinetic excess, oxidizes NADH produced by GDH back to NAD with the concomitant reduction of rezasurin to the highly fluorescent resorufin. Resorufin in measured after the assay is stopped with SDS by Ex544/Em590. A reduction in the signal indicates inhibition of some component of the coupled enzyme system. Prospective hits are counterscreened against GDH/diaphorase alone to remove hits to the coupling enzyme system in a second assay.
2. Buffers • 2× Buffer (300 mM NaCl, 100 mM HEPES pH 8.5, 0.1% BSA, 0.5 mM EDTA, 100 mM sodium phosphate pH 8.5) • 5× Substrate Mix (1× Buffer final concentration, with 13 mM glutamine, 100 μM resazurin, 50 μg/ml diaphorase) • 1.2× Enzyme Mix (1× Buffer final concentration, with 0.875 μg/ml GAC, 1.56 mM NAD, 6.25 units/ml GDH) • Stop Mix (6% SDS in ddH2O) Reaction Procedure • 1. Add 1 μl compound in 100% DMSO • 2. Add 40 μl of Enzyme Mix and incubate for 60 minute at room temperature • 3. Add 10 μl of Substrate Mix to start reaction • 4. Stop reaction with 25 μl of 6% SDS and read Ex544 Em 590

Row | SMILES | IC50 [nM]
1 | O=C(Cc1ccccc1[N+](=O)[O-])Nc1nnc([C@H]2CCC[C@H](c3nnc(NC(=O)Cc4ccccc4[N+](=O)[O-])s3)C2)s1 [Compound 57, N,N′-(5,5′-((1S,3S)-cyclohexane-1,3-diyl)bis(1,3,4-thiadiazole-5,2-diyl))bis(2-(2-nitrophenyl)acetamide)] | 100 to 500
2 | COc1ccc(CC(=O)Nc2nnc([C@@H]3CCC[C@@H](c4nnc(NC(=O)Cc5ccc(OC)cc5)s4)C3)s2)cc1 (stereo in doubt) [Compound 52, N,N′-(5,5′-((1S,3S)-cyclohexane-1,3-diyl)bis(1,3,4-thiadiazole-5,2-diyl))bis(2-(4-methoxyphenyl)acetamide)] | < 100
3 | Nc1cccc(CC(=O)Nc2nnc([C@H]3CCC[C@H](c4nnc(NC(=O)Cc5cccc(N)n5)s4)C3)s2)n1 [Compound 232, N,N′-(5,5′-((1S,3S)-cyclohexane-1,3-diyl)bis(1,3,4-thiadiazole-5,2-diyl))bis(2-(6-aminopyridin-2-yl)acetamide)] | < 100
4 | O=C(Cc1cccc(Br)n1)Nc1nnc([C@H]2CCC[C@H](c3nnc(NC(=O)Cc4cccc(Br)n4)s3)C2)s1 [Compound 118, N,N′-(5,5′-((1S,3S)-cyclohexane-1,3-diyl)bis(1,3,4-thiadiazole-5,2-diyl))bis(2-(6-bromopyridin-2-yl)acetamide)] | < 100
5 | COc1cccc(CC(=O)Nc2nnc([C@@H]3CCCC[C@@H](c4nnc(NC(=O)Cc5cccc(OC)c5)s4)C3)s2)c1 [Compound 129] | 500 to 1000
6 | CC(=O)Nc1nnc([C@H]2CCC[C@H](c3nnc(NC(=O)Cc4ccccn4)s3)C2)s1 [Compound 93, N-(5-((1S,3S)-3-(5-acetamido-1,3,4-thiadiazol-2-yl)cyclohexyl)-1,3,4-thiadiazol-2-yl)-2-(pyridin-2-yl)acetamide] | < 100
7 | CSCC(=O)Nc1nnc([C@H]2CCC[C@H](c3nnc(NC(=O)CSC)s3)C2)s1 [Compound 60, N,N′-(5,5′-((1S,3S)-cyclohexane-1,3-diyl)bis(1,3,4-thiadiazole-5,2-diyl))bis(2-(methylthio)acetamide)] | 500 to 1000
8 | COc1ccccc1CC(=O)Nc1nnc([C@@H]2CC[C@@H](c3nnc(NC(=O)Cc4ccccc4OC)s3)C2)s1 [Compound 117] | 500 to 1000
9 | COc1cc(CC(=O)Nc2nnc([C@H]3CCC[C@H](c4nnc(NC(=O)Cc5ccnc(OC)c5)s4)C3)s2)ccn1 [Compound 224, 2-(2-methoxypyridin-4-yl)-N-[5-[(1S,3S)-3-[5-[[2-(2-methoxypyridin-4-yl)acetyl]amino]-1,3,4-thiadiazol-2-yl]cyclohexyl]-1,3,4-thiadiazol-2-yl]acetamide] | < 100
10 | CN(C)C(=O)c1ccc(CC(=O)Nc2nnc([C@H]3CCC[C@H](c4nnc(NC(=O)Cc5ccc(C(=O)N(C)C)cn5)s4)C3)s2)nc1 [Compound 234, 6-[[5-[3-[5-[[2-[5-(dimethylcarbamoyl)pyridin-2-yl]acetyl]amino]-1,3,4-thiadiazol-2-yl]cyclohexyl]-1,3,4-thiadiazol-2-yl]carbamoylmethyl]-N,N-dimethyl-pyridine-3-carboxamide] | 100 to 500
11 | COc1ccccc1CC(=O)Nc1nnc([C@@H]2CCCC[C@H](c3nnc(NC(=O)Cc4ccccc4OC)s3)C2)s1 [Compound 125] | 1000 to 2000
12 | O=C(Cc1ccccc1)Nc1nnc([C@H]2CCC[C@H](c3nnc(NC(=O)Cc4ccccc4)s3)C2)s1 [Compound 9, N,N′-(5,5′-((1S,3S)-cyclohexane-1,3-diyl)bis(1,3,4-thiadiazole-5,2-diyl))bis(2-phenylacetamide)] | < 100
13 | N#Cc1cccc(CC(=O)Nc2nnc(C3CCC(c4nnc(NC(=O)Cc5cccc(C#N)c5)s4)C3)s2)c1 (centres unmarked) [Compound 97] | 100 to 500
14 | O=C(Cc1ccc(OC(F)F)cn1)Nc1nnc([C@H]2CCC[C@H](c3nnc(NC(=O)Cc4ccc(OC(F)F)cn4)s3)C2)s1 [Compound 228, N,N′-(5,5′-((1S,3S)-cyclohexane-1,3-diyl)bis(1,3,4-thiadiazole-5,2-diyl))bis(2-(5-(difluoromethoxy)pyridin-2-yl)acetamide)] | < 100

Second part, the compound after the results:

Row | IC50 [nM] | SMILES
15 | < 100 | CN(C)c1ccc(CC(=O)Nc2nnc([C@H]3CCC[C@H](c4nnc(NC(=O)Cc5ccc(N(C)C)cn5)s4)C3)s2)nc1 [Compound 241, N,N′-(5,5′-((1S,3S)-cyclohexane-1,3-diyl)bis(1,3,4-thiadiazole-5,2-diyl))bis(2-(5-(dimethylamino)pyridin-2-yl)acetamide)]
16 | < 100 | O=C(Cc1cccc(N2CCC2)c1)Nc1nnc([C@H]2CCC[C@H](c3nnc(NC(=O)Cc4cccc(N5CCC5)c4)s3)C2)s1 [Compound 257, N,N′-(5,5′-((1S,3S)-cyclohexane-1,3-diyl)bis(1,3,4-thiadiazole-5,2-diyl))bis(2-(3-(azetidin-1-yl)phenyl)acetamide)]
17 | < 100 | O=C(Cc1cccc(N2CC(F)(F)C2)n1)Nc1nnc([C@H]2CCC[C@H](c3nnc(NC(=O)Cc4cccc(N5CC(F)(F)C5)n4)s3)C2)s1 [Compound 268, N,N′-(5,5′-((1S,3S)-cyclohexane-1,3-diyl)bis(1,3,4-thiadiazole-5,2-diyl))bis(2-(6-(3,3-difluoroazetidin-1-yl)pyridin-2-yl)acetamide)]
18 | < 100 | Nc1nc(CC(=O)Nc2nnc([C@H]3CCC[C@H](c4nnc(NC(=O)Cc5csc(N)n5)s4)C3)s2)cs1 [Compound 274, N,N′-(5,5′-((1S,3S)-cyclohexane-1,3-diyl)bis(1,3,4-thiadiazole-5,2-diyl))bis(2-(2-aminothiazol-4-yl)acetamide)]
19 | < 100 | COc1ccccc1CC(=O)Nc1nnc([C@H]2CC[C@H](c3nnc(NC(=O)Cc4ccccc4OC)s3)C2)s1 [Compound 284, N,N′-(5,5′-((1S,3S)-cyclopentane-1,3-diyl)bis(1,3,4-thiadiazole-5,2-diyl))bis(2-(2-methoxyphenyl)acetamide)]
20 | 100 to 500 | NCc1ccc(CC(=O)Nc2nnc([C@H]3CCC[C@H](c4nnc(NC(=O)Cc5ccc(CN)cn5)s4)C3)s2)nc1 [Compound 243, N,N′-(5,5′-((1S,3S)-cyclohexane-1,3-diyl)bis(1,3,4-thiadiazole-5,2-diyl))bis(2-(5-(aminomethyl)pyridin-2-yl)acetamide)]
21 | < 100 | O=C(Cc1ccc(N2CC(F)(F)C2)nc1)Nc1nnc([C@H]2CCC[C@H](c3nnc(NC(=O)Cc4ccc(N5CC(F)(F)C5)nc4)s3)C2)s1 [Compound 271, N,N′-(5,5′-((1S,3S)-cyclohexane-1,3-diyl)bis(1,3,4-thiadiazole-5,2-diyl))bis(2-(6-(3,3-difluoroazetidin-1-yl)pyridin-3-yl)acetamide)]
22 | < 100 | O=C(Cc1ccc(F)cn1)Nc1nnc([C@H]2CCC[C@H](c3nnc(NC(=O)Cc4ccc(F)cn4)s3)C2)s1 [Compound 240, N,N′-(5,5′-((1S,3S)-cyclohexane-1,3-diyl)bis(1,3,4-thiadiazole-5,2-diyl))bis(2-(5-fluoropyridin-2-yl)acetamide)]
23 | < 100 | CNc1cccc(CC(=O)Nc2nnc([C@H]3CCC[C@H](c4nnc(NC(=O)Cc5cccc(NC)c5)s4)C3)s2)c1 [Compound 264, N,N′-(5,5′-((1S,3S)-cyclohexane-1,3-diyl)bis(1,3,4-thiadiazole-5,2-diyl))bis(2-(3-(methylamino)phenyl)acetamide)]

— patent US9029531B2 (Agios Pharmaceuticals, Inc., priority 2012, dated 2015)
